# According to patent publication US20260201008A1, “SECRETIN-DERIVED GLP1R SELECTIVE AGONISTS” (GUBRA A/S, priority 2023, published 2026):
# Like-named read-outs stand apart in the source and are kept apart here. Numbered stars: 1 amine (or outer) side, 2 acyl side, 3 side chain; on linkers, the order of the positions; unused ones are H or OH. Square brackets hold non-standard residues; d marks the D form. Side chains are listed from the residue outwards. Peptide text beside a SMILES is read from it. * marks the point of attachment. C20 diacid = O=C(O)CCCCCCCCCCCCCCCCCCC(=O)*; γGlu = O=C(O)[C@H](CCC(=O)[*:2])N[*:1]; AEEA = NCCOCCOCC(=O)O; Aib = CC(C)(N)C(=O)O
# Columns and labels:
# GLP1R = GLP1R (Homo sapiens, UniProt P43220); test: hGLP1R potency, cAMP accumulation in CHO-K1 cells stably overexpressing hGLP1R; assay type: cell-based; set-up: host or cells: CHO-K1; settings: for Selectivity: SCTR EC50/GLP1R EC50 ratio; for EC50: cAMP accumulation, CHO-K1 cells overexpressing hGLP1R; for SCTR EC50/GLP1R EC50 ratio: selectivity for hGLP1R over hSCTR, cAMP accumulation in CHO-K1 cells
# Sequence of GLP1R (P43220 24-463): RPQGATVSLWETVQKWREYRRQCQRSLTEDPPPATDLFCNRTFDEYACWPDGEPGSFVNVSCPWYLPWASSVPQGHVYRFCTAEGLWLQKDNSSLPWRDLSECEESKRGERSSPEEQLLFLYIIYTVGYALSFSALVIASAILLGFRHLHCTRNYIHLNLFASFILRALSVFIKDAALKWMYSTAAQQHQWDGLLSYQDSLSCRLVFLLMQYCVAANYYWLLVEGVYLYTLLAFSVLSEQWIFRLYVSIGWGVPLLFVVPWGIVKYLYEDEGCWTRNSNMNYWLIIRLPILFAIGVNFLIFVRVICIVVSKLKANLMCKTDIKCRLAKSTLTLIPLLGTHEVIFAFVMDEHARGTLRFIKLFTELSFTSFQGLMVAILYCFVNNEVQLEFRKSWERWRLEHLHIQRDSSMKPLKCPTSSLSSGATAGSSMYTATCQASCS
# Summary of the method: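 Potency reflects cAMP accumulation measured by time-resolved fluorescence energy transfer after a 30 min room-temperature stimulation in IBMX-containing (0.5 mM) DPBS with casein. Purified peptides were tested in duplicate over eleven threefold dilutions, and EC50 was obtained from sigmoid concentration-response fitting.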
# [1] = Turbidity of crude library peptides (absorbance at 600 nm); assay type: physicochemical; settings: Physical stability of peptides
# Summary of the method: (§1)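 Values reflect mean ThT emission (ex 450, em 480 nm) over 72 h at 40° C, read every 10 min after 5 min shaking at 700 rpm, plus a single initial absorbance at 600 nm for turbidity. Peptides were at 267 μM, pH 4.0 acetate or pH 7.0 phosphate (50 mM), with 4 μM ThT.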
# [2] = Fibril formation of crude library peptides (Thioflavin T); assay type: physicochemical; set-up: key: average ThT fluorescence emission at 480 nm (ex 450 nm), raw units; settings: Physical stability of peptides
# Summary of the method: as §1
# SCTR = SCTR (Homo sapiens, UniProt P47872); test: hSCTR potency, cAMP accumulation in CHO-K1 cells stably overexpressing hSCTR; assay type: cell-based; set-up: alternatively Euroscreen ES-712-AF; FAST-0161L; host or cells: CHO-K1; settings: cAMP accumulation, CHO-K1 cells overexpressing hSCTR
# Sequence of SCTR (P47872 23-440): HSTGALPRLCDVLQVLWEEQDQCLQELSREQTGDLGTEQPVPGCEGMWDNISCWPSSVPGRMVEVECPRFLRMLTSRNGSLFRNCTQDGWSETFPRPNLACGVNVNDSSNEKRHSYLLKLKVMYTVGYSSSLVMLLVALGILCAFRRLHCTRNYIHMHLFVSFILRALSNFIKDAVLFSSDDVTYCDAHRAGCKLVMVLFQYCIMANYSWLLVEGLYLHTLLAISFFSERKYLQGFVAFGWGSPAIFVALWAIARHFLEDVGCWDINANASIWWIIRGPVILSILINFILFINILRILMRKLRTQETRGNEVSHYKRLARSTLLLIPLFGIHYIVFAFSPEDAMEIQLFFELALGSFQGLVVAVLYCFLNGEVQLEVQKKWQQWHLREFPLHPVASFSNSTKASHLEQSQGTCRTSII
# Summary of the method: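 Potency reflects cAMP accumulation after 30 min agonist exposure at room temperature in hSCTR-expressing CHO-K1 cells, with 0.5 mM IBMX present to block phosphodiesterase. EC50 was derived by nonlinear regression.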
# [3] = read-out: pEC50 hGLPR1 (converted)
# [4] = read-out: pEC50 hSCTR (converted)
# [5] = read-out: hGLP1R pEC50 (converted)
# [6] = read-out: hSCTR pEC50 (converted)
Selectivity (GLP1R),EC50 (GLP1R; [3]) [nM],Turbidity (pH 7) [1],Fibril formation [2],EC50 (SCTR; [4]) [nM],EC50 (GLP1R; [5]) [nM],SCTR EC50/GLP1R EC50 ratio (GLP1R),EC50 (SCTR; [6]) [nM],Compound
209363,0.0158,0.08,6253,3160,–,–,–,CC(C)C[C@H](NC(=O)[C@H](Cc1ccccc1)NC(=O)[C@H](CCCNC(=N)N)NC(=O)[C@H](CCC(N)=O)NC(=O)[C@H](CCC(=O)O)NC(=O)[C@H](C)NC(=O)[C@H](C)NC(=O)[C@@H](NC(=O)[C@H](CCC(=O)O)NC(=O)[C@H](CCCCNC(=O)COCCOCCNC(=O)COCCOCCNC(=O)CC[C@H](NC(=O)CCCCCCCCCCCCCCCCCCC(=O)O)C(=O)O)NC(=O)[C@H](CC(C)C)NC(=O)[C@@H](NC(=O)[C@H](CO)NC(=O)[C@@H](NC(=O)[C@H](CC(=O)O)NC(=O)[C@H](CO)NC(=O)[C@@H](NC(=O)[C@H](Cc1ccccc1)NC(=O)[C@@H](NC(=O)CNC(=O)[C@H](CCC(=O)O)NC(=O)C(C)(C)NC(=O)[C@@H](N)Cc1c[nH]cn1)[C@@H](C)O)[C@@H](C)O)C(C)C)[C@@H](C)O)[C@@H](C)O)C(=O)N[C@@H](CCC(=O)O)C(=O)N[C@@H](Cc1c[nH]cn1)C(=O)N[C@@H](CC(C)C)C(=O)N[C@H](C(N)=O)C(C)C [compound 42] (H-H[Aib]EGTFTSDVSTLK([AEEA-AEEA-γGlu-C20 diacid])ETAAEQRFLEHLV-NH2)
8541,0.1,0.08,28786,794,–,–,–,CC(C)C[C@H](NC(=O)[C@H](Cc1ccccc1)NC(=O)[C@H](CCCNC(=N)N)NC(=O)[C@H](CCC(N)=O)NC(=O)[C@H](C)NC(=O)[C@H](C)NC(=O)[C@H](C)NC(=O)[C@H](Cc1ccccc1)NC(=O)[C@H](CCC(=O)O)NC(=O)[C@H](CCCCNC(=O)COCCOCCNC(=O)COCCOCCNC(=O)CC[C@H](NC(=O)CCCCCCCCCCCCCCCCCCC(=O)O)C(=O)O)NC(=O)[C@H](CC(C)C)NC(=O)[C@@H](NC(=O)[C@H](CO)NC(=O)[C@@H](NC(=O)[C@H](CC(=O)O)NC(=O)[C@H](CO)NC(=O)[C@@H](NC(=O)[C@H](Cc1ccccc1)NC(=O)[C@@H](NC(=O)CNC(=O)[C@H](CCC(=O)O)NC(=O)C(C)(C)NC(=O)[C@@H](N)Cc1c[nH]cn1)[C@@H](C)O)[C@@H](C)O)C(C)C)C(C)C)C(=O)N[C@@H](CCC(=O)O)C(=O)N[C@@H](Cc1c[nH]cn1)C(=O)N[C@@H](CC(C)C)C(=O)N[C@H](C(N)=O)C(C)C [compound 29] (H-H[Aib]EGTFTSDVSVLK([AEEA-AEEA-γGlu-C20 diacid])EFAAAQRFLEHLV-NH2)

# Further lines, the compound ahead of its results:
Compound,Selectivity (GLP1R),EC50 (GLP1R; [3]) [nM],Turbidity (pH 7) [1],Fibril formation [2],EC50 (SCTR; [4]) [nM],EC50 (GLP1R; [5]) [nM],SCTR EC50/GLP1R EC50 ratio (GLP1R),EC50 (SCTR; [6]) [nM]
CC(C)C[C@H](NC(=O)[C@H](Cc1ccccc1)NC(=O)[C@H](CCCNC(=N)N)NC(=O)[C@H](CCC(N)=O)NC(=O)C(C)(C)NC(=O)[C@H](C)NC(=O)[C@H](C)NC(=O)[C@H](CCC(=O)O)NC(=O)[C@H](CCC(=O)O)NC(=O)[C@H](CCCCNC(=O)COCCOCCNC(=O)COCCOCCNC(=O)CC[C@H](NC(=O)CCCCCCCCCCCCCCCCCCC(=O)O)C(=O)O)NC(=O)[C@H](CC(C)C)NC(=O)[C@@H](NC(=O)[C@H](CO)NC(=O)[C@@H](NC(=O)[C@H](CC(=O)O)NC(=O)[C@H](CO)NC(=O)[C@@H](NC(=O)[C@H](Cc1ccccc1)NC(=O)[C@@H](NC(=O)CNC(=O)[C@H](CCC(=O)O)NC(=O)C(C)(C)NC(=O)[C@@H](N)Cc1c[nH]cn1)[C@@H](C)O)[C@@H](C)O)C(C)C)[C@@H](C)O)C(=O)N[C@@H](CCC(=O)O)C(=O)N[C@@H](Cc1c[nH]cn1)C(=O)N[C@@H](CC(C)C)C(=O)N[C@H](C(N)=O)C(C)C [compound 77] (H-H[Aib]EGTFTSDVSTLK([AEEA-AEEA-γGlu-C20 diacid])EEAA[Aib]QRFLEHLV-NH2),74783,0.02,0.08,11936,1580,–,–,–
CC[C@H](C)[C@H](NC(=O)[C@H](Cc1ccccc1)NC(=O)[C@H](CCCNC(=N)N)NC(=O)[C@H](CCC(N)=O)NC(=O)[C@H](CC(C)C)NC(=O)[C@H](C)NC(=O)[C@H](C)NC(=O)CNC(=O)[C@H](CCC(=O)O)NC(=O)[C@H](CC(C)C)NC(=O)[C@H](CC(C)C)NC(=O)[C@H](CCC(=O)O)NC(=O)[C@H](CO)NC(=O)C(C)(C)NC(=O)[C@H](CC(=O)O)NC(=O)[C@H](CO)NC(=O)[C@@H](NC(=O)[C@H](Cc1ccccc1)NC(=O)[C@@H](NC(=O)CNC(=O)[C@H](CCC(=O)O)NC(=O)C(C)(C)NC(=O)[C@@H](N)Cc1c[nH]cn1)[C@@H](C)O)[C@@H](C)O)C(=O)N[C@@H](CCC(N)=O)C(=O)N[C@@H](Cc1c[nH]c2ccccc12)C(=O)N[C@@H](CC(C)C)C(=O)N[C@H](C(N)=O)C(C)C [compound 109] (H-H[Aib]EGTFTSD[Aib]SELLEGAALQRFIQWLV-NH2),–,–,0.08,3301,–,0.0794,39765,3160
CC(C)C[C@H](NC(=O)[C@H](Cc1ccccc1)NC(=O)[C@H](CCCNC(=N)N)NC(=O)[C@H](CCC(N)=O)NC(=O)[C@H](CC(C)C)NC(=O)C(C)(C)NC(=O)[C@H](C)NC(=O)[C@H](CCC(=O)O)NC(=O)[C@H](CCC(=O)O)NC(=O)[C@H](CCCCNC(=O)COCCOCCNC(=O)COCCOCCNC(=O)CC[C@H](NC(=O)CCCCCCCCCCCCCCCCCCC(=O)O)C(=O)O)NC(=O)[C@H](CC(C)C)NC(=O)[C@H](Cc1ccc(O)cc1)NC(=O)[C@H](CO)NC(=O)[C@@H](NC(=O)[C@H](CC(=O)O)NC(=O)[C@H](CO)NC(=O)[C@@H](NC(=O)[C@H](Cc1ccccc1)NC(=O)[C@@H](NC(=O)CNC(=O)[C@H](CCC(=O)O)NC(=O)C(C)(C)NC(=O)[C@@H](N)Cc1c[nH]cn1)[C@@H](C)O)[C@@H](C)O)C(C)C)C(=O)N[C@@H](CCC(=O)O)C(=O)N[C@@H](CCCCN)C(=O)N[C@@H](CC(C)C)C(=O)N[C@H](C(N)=O)C(C)C [compound 147] (H-H[Aib]EGTFTSDVSYLK([AEEA-AEEA-γGlu-C20 diacid])EEA[Aib]LQRFLEKLV-NH2),–,–,0.08,4336,–,0.00501,12361,63.1
CC(C)C[C@H](NC(=O)[C@H](Cc1ccccc1)NC(=O)[C@H](CCCNC(=N)N)NC(=O)[C@H](CCC(N)=O)NC(=O)[C@H](C)NC(=O)[C@H](C)NC(=O)[C@H](C)NC(=O)[C@H](CCC(=O)O)NC(=O)[C@H](CCC(=O)O)NC(=O)[C@H](CCCCNC(=O)COCCOCCNC(=O)COCCOCCNC(=O)CC[C@H](NC(=O)CCCCCCCCCCCCCCCCCCC(=O)O)C(=O)O)NC(=O)[C@H](CC(C)C)NC(=O)[C@H](CCC(=O)O)NC(=O)[C@H](CO)NC(=O)[C@@H](NC(=O)[C@H](CC(=O)O)NC(=O)[C@H](CO)NC(=O)[C@@H](NC(=O)[C@H](Cc1ccccc1)NC(=O)[C@@H](NC(=O)CNC(=O)[C@H](CCC(=O)O)NC(=O)C(C)(C)NC(=O)[C@@H](N)Cc1c[nH]cn1)[C@@H](C)O)[C@@H](C)O)C(C)C)C(=O)N[C@@H](CCC(=O)O)C(=O)N[C@@H](Cc1c[nH]cn1)C(=O)N[C@@H](CC(C)C)C(=O)N[C@H](C(N)=O)C(C)C [compound 98] (H-H[Aib]EGTFTSDVSELK([AEEA-AEEA-γGlu-C20 diacid])EEAAAQRFLEHLV-NH2),–,–,0.09,10655,–,0.0251,48854,1260
